Tests used:
MDA-MB 231 cancer cells = test: MDA-MB-231 cell proliferation assay (cell counting on 6th day); format: cell-based; details: relative to prior art compound BPTES
Procedure: (§1) Cell culture media and serum were obtained from Invitrogen (Carlsbad, Calif.). All other reagents were obtained from Fisher Scientific (Pittsburgh, Pa.) or Sigma Aldrich (St. Louis, Mo.). MDA-MB-231 cells were purchased from ATCC (Manassas, Va.), and were cultured at 35° C., in 5% CO2, using RPMI-1640 media supplemented with 10% FBS, unless otherwise specified. Recombinant GAC was expressed in E. coli and purified. Briefly, human GAC (residues 72-603) was cloned into the pET28a vector from Novagen, and was expressed as a His6-tagged fusion protein in E. coli. It was then purified by ion exchange and size exclusion chromatography.
Cell assays: MDA-MB-231 cells were cultured in RPMI-1640 media supplemented with 10% FBS. Prior to initiating the assay, cells that were 70-80% confluent were trypsinized. These cells were diluted, counted, and dispensed into 12-well culture plates at a density of 2×10^4 cells per well. Each well was then brought to 1 mL of media, total. The cells were allowed to adhere to the wells overnight, at which point they were recounted (day 0 of the assay). […] Cells were counted on the 6th day of culture. […] Cells were then counted on a hemocytometer, with 3 readings taken and averaged per sample. […] Dose curves and IC50 values were determined in Sigmaplot, using the built-in four parameter logistic function.

[1] = target: recombinant GAC (human GAC, residues 72-603); test: GAC enzyme assay (biochemical assay, glutamate dehydrogenase-coupled, absorbance at 340 nm); details: relative to prior art compound BPTES
Procedure: as §1
Biochemical assays: The GAC inhibitors were solvated in DMSO. Assay vessels were charged with 1 μL of inhibitor in order to effect the reported final concentration. To each vessel was added 95 μL of an aqueous solution containing 48 mM Tris-acetate (pH 8.6), 21 mM glutamine, and 50 nM recombinant GAC. Fifteen μL of either water or 1 M potassium phosphate, pH 8.2, were added to the mixture to begin the reaction. […] The absorbance of both the second and third reactions was recorded at […]. The third reaction was treated as a baseline, and its absorbance was subtracted from that of the second reaction prior to further data analysis. […] Dose curves and IC50 values were determined in Sigmaplot, using the built-in four parameter logistic function.

Structure (SMILES): O=C(Cc1ccccc1)Nc1nnc(OC2CCN(c3nnc(NC(=O)Cc4ccccc4)s3)CC2)s1 [UPGL00019, 2-Phenyl-N-{5-[1-(5-phenylacetylamino-[1,3,4]thiadiazol-2-yl)-piperidin-4-yloxy]-[1,3,4]thiadiazol-2-yl}-acetamide]
- IC50 in inhibiting the proliferation of MDA-MB 231 cancer cells in vitro compared to BPTES (MDA-MB 231 cancer cells): better than BPTES by 2 orders of magnitude
- IC50 in the GAC enzyme assay compared directly to BPTES [1]: one order of magnitude better

— US11013724B2, “Glutaminase inhibitors” (University of Pittsburgh—Of the Commonwealth System of …, priority 2014, dated 2021)
